Test results: ChEMBL document CHEMBL4627246, “Pyroglutamide-Based P2X7 Receptor Antagonists Targeting Inflammatory Bowel Disease” (J Med Chem, 2020)

Legend:
Type in all cases: cell-based
[1] = test system: LOX IMVI; experiment: Cytotoxicity against human LOXIMVI cells assessed as effect on cell growth at 10 uM incubated for 48 hrs by sulforhodamine B assay
[2] = test system: SN12C; experiment: Cytotoxicity against human SN12C cells assessed as effect on cell growth at 10 uM incubated for 48 hrs by sulforhodamine B assay
[3] = test system: NCI-H522; experiment: Cytotoxicity against human NCI-H522 cells assessed as effect on cell growth at 10 uM incubated for 48 hrs by sulforhodamine B assay; conditions: nci-h522, 48 h
[4] = test system: NCI-H23; experiment: Cytotoxicity against human NCI-H23 cells assessed as effect on cell growth at 10 uM incubated for 48 hrs by sulforhodamine B assay; conditions: nci-h23, 48 h
[5] = test system: EKVX; experiment: Cytotoxicity against human EKVX cells assessed as effect on cell growth at 10 uM incubated for 48 hrs by sulforhodamine B assay
[6] = test system: HOP-92; experiment: Cytotoxicity against human HOP92 cells assessed as effect on cell growth at 10 uM incubated for 48 hrs by sulforhodamine B assay; conditions: hop-92, 48 h
[7] = test system: SW-620; experiment: Cytotoxicity against human SW620 cells assessed as effect on cell growth at 10 uM incubated for 48 hrs by sulforhodamine B assay; conditions: sw-620, 48 h
[8] = test system: PC-3; experiment: Cytotoxicity against human PC3 cells assessed as effect on cell growth at 10 uM incubated for 48 hrs by sulforhodamine B assay; conditions: pc-3, 48 h
[9] = test system: OVCAR-5; experiment: Cytotoxicity against human OVCAR5 cells assessed as effect on cell growth at 10 uM incubated for 48 hrs by sulforhodamine B assay; conditions: ovcar-5, 48 h
[10] = test system: SK-OV-3; experiment: Cytotoxicity against human SKOV3 cells assessed as effect on cell growth at 10 uM incubated for 48 hrs by sulforhodamine B assay; conditions: sk-ov-3, 48 h
[11] = test system: SK-MEL-5; experiment: Cytotoxicity against human SK-MEL-5 cells assessed as effect on cell growth at 10 uM incubated for 48 hrs by sulforhodamine B assay; conditions: sk-mel-5, 48 h
[12] = test system: SNB-19; experiment: Cytotoxicity against human SNB19 cells assessed as effect on cell growth at 10 uM incubated for 48 hrs by sulforhodamine B assay; conditions: snb-19, 48 h
[13] = test system: 786-0; experiment: Cytotoxicity against human 786-0 cells assessed as effect on cell growth at 10 uM incubated for 48 hrs by sulforhodamine B assay; conditions: 786-0, 48 h
[14] = test system: MOLT-4; experiment: Cytotoxicity against human MOLT4 cells assessed as effect on cell growth at 10 uM incubated for 48 hrs by sulforhodamine B assay; conditions: molt-4, 48 h
[15] = test system: TK-10; experiment: Cytotoxicity against human TK10 cells assessed as effect on cell growth at 10 uM incubated for 48 hrs by sulforhodamine B assay; conditions: tk-10, 48 h
[16] = test system: UACC-257; experiment: Cytotoxicity against human UACC257 cells assessed as effect on cell growth at 10 uM incubated for 48 hrs by sulforhodamine B assay; conditions: uacc-257, 48 h
[17] = test system: SF-268; experiment: Cytotoxicity against human SF268 cells assessed as effect on cell growth at 10 uM incubated for 48 hrs by sulforhodamine B assay; conditions: sf-268, 48 h
[18] = test system: NCI-H226; experiment: Cytotoxicity against human NCI-H226 cells assessed as effect on cell growth at 10 uM incubated for 48 hrs by sulforhodamine B assay; conditions: nci-h226, 48 h
[19] = test system: HL-60(TB); experiment: Cytotoxicity against human HL-60(TB) cells assessed as effect on cell growth at 10 uM incubated for 48 hrs by sulforhodamine B assay
[20] = test system: SR; experiment: Cytotoxicity against human SR cells assessed as effect on cell growth at 10 uM incubated for 48 hrs by sulforhodamine B assay

Measured: Activity

COc1ccc(CN2C(=O)CC[C@H]2C(=O)NCCc2ccccc2)cc1
Non-Toxic: [1] | [2] | [3] | [4] | [5] | [6] | [7] | [8] | [9] | [10] | [11] | [12] | [13] | [14] | [15] | [16] | [17] | [18] | [19] | [20]

CN(Cc1ccccc1)C(=O)[C@@H]1CCC(=O)N1Cc1ccc(Cl)cc1Cl
Non-Toxic: [1] | [2] | [3] | [4] | [5] | [6] | [7] | [8] | [9] | [10] | [11] | [12] | [13] | [14] | [15] | [16] | [17] | [18] | [19] | [20]

CN1C(=O)C(C)(C)C[C@H]1C(=O)NCc1cccc(C(F)(F)F)c1Cl
Non-Toxic: [1] | [2] | [3] | [4] | [5] | [6] | [7] | [8] | [9] | [10] | [11] | [12] | [13] | [14] | [15] | [16] | [17] | [18] | [19] | [20]

O=C(NCc1ccccc1Cl)[C@@H]1CCC(=O)N1Cc1ccc(Cl)cc1
Non-Toxic: [1] | [2] | [3] | [4] | [5] | [6] | [7] | [8] | [9] | [10] | [11] | [12] | [13] | [14] | [15] | [16] | [17] | [18] | [19] | [20]

O=C(NCCc1ccc(Cl)cc1Cl)[C@@H]1CCC(=O)N1c1ccccc1
Non-Toxic: [1] | [2] | [3] | [4] | [5] | [6] | [7] | [8] | [9] | [10] | [11] | [12] | [13] | [14] | [15] | [16] | [17] | [18] | [19] | [20]

O=C(NCCc1ccccc1)[C@@H]1CCC(=O)N1Cc1ccc(Br)cc1
Non-Toxic: [1] | [2] | [3] | [4] | [5] | [6] | [7] | [8] | [9] | [10] | [11] | [12] | [13] | [14] | [15] | [16] | [17] | [18] | [19] | [20]

CN1CCN(/C=C2\C[C@@H](C(=O)NCc3ccc(Cl)cc3Cl)N(c3cccs3)C2=O)CC1
Non-Toxic: [1] | [2] | [3] | [4] | [5] | [6] | [7] | [8] | [9] | [10] | [11] | [12] | [13] | [14] | [15] | [16] | [17] | [18] | [19] | [20]

O=C(NCc1ccc(Cl)cc1Cl)[C@@H]1CCC(=O)N1Cc1ccccc1
Non-Toxic: [1] | [2] | [3] | [4] | [5] | [6] | [7] | [8] | [9] | [10] | [11] | [12] | [13] | [14] | [15] | [16] | [17] | [18] | [19] | [20]

CN(C)/C=C1\C[C@H]2C(=O)N(Cc3ccc(Cl)cc3Cl)C(N(C)C)N2C1=O (stereo not given in full)
Non-Toxic: [1] | [2] | [3] | [4] | [5] | [6] | [7] | [8] | [9] | [10] | [11] | [12] | [13] | [14] | [15] | [16] | [17] | [18] | [19] | [20]

O=C(NCc1ccccc1Cl)[C@@H]1CCC(=O)N1Cc1ccccc1
Non-Toxic: [1] | [2] | [3] | [4] | [5] | [6] | [7] | [8] | [9] | [10] | [11] | [12] | [13] | [14] | [15] | [16] | [17] | [18] | [19] | [20]

O=C(Nc1ccc(Cl)cc1Cl)[C@@H]1CCC(=O)N1Cc1ccccc1Cl
Non-Toxic: [1] | [2] | [3] | [4] | [5] | [6] | [7] | [8] | [9] | [10] | [11] | [12] | [13] | [14] | [15] | [16] | [17] | [18] | [19] | [20]

COc1ccc(N2C(=O)CC[C@H]2C(=O)NCc2ccc(Cl)cc2Cl)cc1
Non-Toxic: [1] | [2] | [3] | [4] | [5] | [6] | [7] | [8] | [9] | [10] | [11] | [12] | [13] | [14] | [15] | [16] | [17] | [18] | [19] | [20]

O=C(NCc1ccc(Cl)cc1Cl)[C@@H]1CCC(=O)N1Cc1ccc(Cl)cc1
Non-Toxic: [1] | [2] | [3] | [4] | [5] | [6] | [7] | [8] | [9] | [10] | [11] | [12] | [13] | [14] | [15] | [16] | [17] | [18] | [19] | [20]

O=C(NCc1ccc(Cl)cc1Cl)c1ccccn1
Non-Toxic: [1] | [2] | [3] | [4] | [5] | [6] | [7] | [8] | [9] | [10] | [11] | [12] | [13] | [14] | [15] | [16] | [17] | [18] | [19] | [20]
